Data from patent US6713048B2, “Δ9 tetrahydrocannabinol (Δ9 THC) solution metered dose inhalers and methods of use” (Virginia Commonwealth University, priority 1998, dated 2004).
Read-outs that look alike come from different tables or passages of the source.

Assays:
airways = settings: nebulized micro-aerosol, propylene glycol vehicle; cited from earlier work
[1] = test system: Nausea and emesis due to Cancer chemotherapy; settings: oral 10 mg/m^2 THC; refractory to other antiemetics; cited from earlier work
Glaucoma = settings: oral 5, 10, 15 and 20 mg THC; 6 glaucoma patients; cited from earlier work
Male ICR mice = assay: Antinociception, tail-flick test; type: in vivo; settings: for % MPE (mean ± S.E.): 20 min after treatment
Procedure: Male ICR mice, weighing approximately 30 g, obtained from Harlan Laboratories (Indianapolis, Ind.) were provided a light cycle of approximately 6 a.m. to 6 p.m., and the temperature remained approximately 23° C. The mice were placed in the lab and allowed to accommodate to the surroundings the evening prior to testing. Animals were allowed food (Harlan Teklab, Madison, Wis.) and water ad libitum.
The exposure chamber was a modified, inverted, 1-liter separation funnel, housed under a fume hood, which allowed four mice to be simultaneously exposed to the aerosol. Air was drawn through the chamber at a rate of approximately 60 ml/minute and filtered through glass wool (Corning Inc., Corning, N.Y.) and charcoal traps (SKC Inc., Eighty Four, Pa.) upon exiting the exposure chamber. Each actuation of Δ^9-THC or vehicle was delivered once per 5 s and the entire exposure period was 10 min. Mice were exposed to 20, 40 or 60 actuations of aerosolized Δ^9-THC or 60 actuations of vehicle.
Mice were placed in separate clear chambers (16.5 cm×25.5 cm×11.5 cm high) and assessed for hypomotility using a Digiscan Animal Activity Monitor (Omnitech Electronics Inc., Columbus, Ohio) in which the total number of photocell-light beam interruptions was counted. Antinociception was assessed in the tail-flick test (D'Amour, F. E., Smith, D. L., A method for determining loss of pain sensation, J Pharm Exp Ther, 72:74-79 (1941)) with heat intensity adjusted to give baseline latencies ranging from 2.0-4.0 seconds. A cut-off time of 10 seconds was used to limit tissue damage. Percent maximum possible effect (%MPE) was determined according to the following formula:
%MPE=[(test latency-baseline latency)/(cut-off-baseline latency)]*100
A ring-test procedure was used to assess catalepsy. The percent of time during a five minute observation period that mice remained motionless, except for movements related to respiration, while stationed on a 5.7 cm diameter ring stand 23 cm above the laboratory bench, was assessed. Body temperature was assessed by inserting a thermometer probe (Traceable Digital, Control Co., Friendswood, Tex.) 2.5 cm into the rectum. Subjects were assessed for baseline tail-flick latency and rectal temperature prior to drug or vehicle administration. […] Locomotor activity, tail-flick latency, catalepsy, and hypothermia were assessed 5, 20, 40, and 60 minutes, respectively, after aerosol exposure. An additional group of animals was given an i.v. injection of Δ^9-THC (0.3, 1, 3, or 10 mg/kg) or vehicle into a lateral tail vein and assessed in the tail-flick test 20 minutes later. All injections were given in a volume of 0.1 ml per 10 g animal weight.
The statistical analysis of the data was as follows. Data are represented by means±standard error (s.e.). Statistical analysis of the data was performed using Student t-tests (for the physiochemical comparisons of the aerosol), or ANOVA (for pharmacological studies), with significance set at p<0.05. Post hoc tests for significant ANOVAs included either Dunnett's test or Tukey/Kramer post-hoc analysis. […] A sample size of 6-8 mice was used in each group.

[2] = test system: healthy and asthmatic subjects; settings: aerosolized Δ^9-THC from MDI, cited from earlier work
[3] = test system: Spasticity and pain due to spinal cord injury; settings: oral THC (5 mg) or codeine (50 mg); 1 patient; cited from earlier work
asthmatic patients = settings: low concentration aerosol; cited from earlier work
[4] = test system: Nausea and emesis due to Cancer chemotherapy; settings: oral 15 mg THC, 116 patients, cited from earlier work
[5] = test system: Spasticity related to multiple sclerosis; settings: 13 patients, cited from earlier work
[6] = test system: Nausea and emesis due to Cancer chemotherapy; settings: oral 10 mg/m^2 THC every 3 hours, 5 doses, 15 patients, cited from earlier work
[7] = test system: AIDS-associated anorexia and cachexia; settings: oral 2.5 mg THC twice daily; 139 patients; 42 days; cited from earlier work
[8] = test system: Spasticity related to multiple sclerosis; settings: oral 10 or 15 mg THC, rectal 5 or 10 mg THC; 2 patients; cited from earlier work
[9] = cited from earlier work
[10] = 10 mg prochloperzine or placebo
[11] = intravenous, bolus, 5 mg (Ohlsson et al., 1980)
[12] = oral, in cookies, 20 mg (Ohlsson et al., 1980)
[13] = oral, sesame oil in gelatin capsules, 2.5, 5, or 10 mg (PDR, 1995)
[14] = smoking, 13 mg (Ohlsson et al., 1980)

## CCCCCc1cc(O)c2c(c1)OC(C)(C)[C@@H]1CCC(C)=C[C@@H]21 (relative stereo) [Δ^9 THC, (6aR-trans)-6a,7,8,10a-tetrahydro-6,6,9-trimethyl-3-pentyl-6H-dibenzo[b,d]-pyran-1-ol]
airways
  bronchial and systemic effects: bronchodilation without systemic effects
[1]
  courses resulting in a reduction of vomiting (of 20 courses of THC): resulted in no vomiting, 9
  courses resulting in no decrease in vomiting (of 20 courses of THC): vomiting, 3 resulted in no
  courses resulting in no vomiting (of 20 courses of THC): In 20 courses of THC, 5
Glaucoma
  appetite: appetite stimulation,
  mood: elevated mood
  pain: Pain relief
Male ICR mice; Mus musculus, intravenous, read-out: antinociceptive ED50 (95% C.L.)
  ED50: 2.4 mg/kg
Male ICR mice; inhalation
  antinociceptive ED50 (95% C.L.): 30 (20-44) actuations
Male ICR mice; inhalation, 20 actuations
  % MPE (mean ± S.E.): 37 ± 11 % MPE
Male ICR mice; inhalation, 40 actuations
  % MPE (mean ± S.E.): 58 ± 14 % MPE
Male ICR mice; inhalation, 60 actuations
  % MPE (mean ± S.E.): 78 ± 11 % MPE
Male ICR mice; intravenous, 1 mg/kg
  % MPE (mean ± S.E.): 31 ± 8 % MPE
Male ICR mice; intravenous, 3 mg/kg
  % MPE (mean ± S.E.): 70 ± 14 % MPE
Male ICR mice; intravenous, 10 mg/kg
  % MPE (mean ± S.E.): 67 ± 11 % MPE
[2]; healthy patients, at higher doses
  systemic side effects (increased heart rate, subjective reports of being 'high'): substantial systemic side effects
[2]; healthy patients
  bronchial effect in healthy patients: bronchodilation was seen
[2]; some asthmatic patients
  bronchial effect in asthmatic patients: bronchoconstriction occurred
[3]
  effect on spasticity: THC had a beneficial effect
Asthmatic patients
  bronchial and systemic effects: bronchodilation without systemic side effects
[4]; [10]
  antiemetic effect compared with placebo: each greater than placebo;
  antiemetic effects, THC vs prochlorperazine: Equal antiemetic effects
[4]; 10 mg prochloperzine
  CNS side effects compared with prochlorperazine: considerately more CNS
[5]; oral 2.5 to 15 mg THC once or twice daily
  objective measurements of spasticity: no significant improvement
[5]; oral, at 7.5 mg THC and higher, once or twice daily
  subjective improvement in spasticity: Significant subjective
[6]
  patients with a fair response: excellent response, 40%
  plasma THC levels (mean + SD): THC levels 7.1 ± 6.9 (mean ng/ml
  side effects: tachycardia, few other side
[6]; THC (17 mg) laced cigarettes if vomiting occurred
  patients with a reduction in nausea and vomiting: 93% patients had a
[7]
  appetite increase over baseline: Appetite increased 38%
  nausea: THC also decreased
  weight change between THC and placebo groups: nausea. No significant
[8]
  passive mobility and walking ability: Improvement in passive
[9]; [11]
  % Dose in Plasma: 100%
  Onset of Pharmacological Action: 10 min
  Peak Plasma Levels (time): 3 min
[9]; [12]
  % Dose in Plasma: 4 to 12%
  Onset of Pharmacological Action: 120-180 min
  Peak Plasma Levels (time): 60 to 90 min
[9]; [13]
  % Dose in Plasma: 10 to 20%
  Onset of Pharmacological Action: 0.5 to 1 hour
  Peak Plasma Levels (time): 120 to 480 min
[9]; smoking (THC lost to side stream smoke and pyrolysis), 13 mg (Ohlsson et al., 1980)
  % Dose in Plasma: 8 to 24%
[9]; [14]
  Onset of Pharmacological Action: 10 min
  Peak Plasma Levels (time): 3 min
